Measured values: US10435376B2, “Derivatives of 1H-imidazole-4,5-dicarboxamide and use thereof in preparation of anticoccidial drugs” (GUANGZHOU INSIGHTER BIOTECHNOLOGY CO., LTD., priority 2015, dated 2019)
Like-named read-outs stand apart in the source and are kept apart here.

Tests used:
Type in all cases: in vivo
[1] = system: Eimeria tenella; test: Inhibitory effects of the derivatives on Eimeria tenella of chicken (60 ppm in feed); conditions: for responders at 60 ppm, 60 µg/mL / response vs control in vivo at 60 ppm, 60 µg/mL: Eimeria tenella, 168 h; for responders at 60 ppm, 60 µg/mL: read-out: Survival rate (%); for response vs control in vivo at 60 ppm, 60 µg/mL: relative to group 1 (not infected, not treated), read-out: Relative weight gain (%); for Score (bloody stool score): 5 days after inoculation
Description: (§1) One-day-old yellow-feather fast-growing broilers were raised in a coccidia-free environment, and divided into groups for trial at the age of 18 days when no coccidian oocysts were detected by microscopy in their faeceas. Weak or overweight broilers were removed, and healthy broilers were divided into 30 groups with 50 broilers in each group and weight difference between each two broilers was below 20 g. Groups 1 and 2 were respectively a control group that the broilers were neither infected nor treated, and a control group that the broilers were infected but not treated. Groups 3 to 30 were respectively administrated with different derivatives. The broilers were given ad libitum access to feed and water when the feed was added with different medicines according to Table 1 at the day the broilers were divided. 24 Hours after the trial began, 250,000 sporulated Eimeria tenella oocysts were inoculated via an oral gavage into the crop of every broiler in each group except group 1. Bloody stool score was measured 5 days after the inoculation and the trial was ended 7 days after the inoculation. Relative weight gain (%), survival rate (%) and the bloody stool score were evaluated.
(§2) Bloody stool score: 0, no bloody stool was observed; 1, bloody stool below 25%; 2, 25 to 50% of bloody stool; 3, 50 to 75% of bloody stool; and 4, bloody stool over 75%.
(§3) Relative weight gain (%): The broilers were weighed at the beginning and the end of the trial to calculate the average weight gain and relative weigh gain. Relative weight gain=(average weight gain of each group/average weight gain of group 1)×100%.
(§4) Deaths of the broilers: Necropsy was performed and the amount of dead broilers in each group was recorded to calculate the survival rate. Survival rate=(total amount of the broilers in each group−amount of deaths caused by coccidial infection)/total amount of the broilers in each group×100%.

[2] = system: Eimeria necatrix; test: Inhibitory effects of the derivatives on Eimeria necatrix of chicken; conditions: for responders at 60 ppm, 60 µg/mL / response vs control in vivo at 60 ppm, 60 µg/mL: Eimeria necatrix, 168 h; for responders at 60 ppm, 60 µg/mL: read-out: Survival rate (%); for response vs control in vivo at 60 ppm, 60 µg/mL: feed or water, read-out: Relative weight gain (%); for response vs control in vivo at 60 ppm, 60 µg/mL / Score (bloody stool score): broilers, 60 ppm in feed, 100,000 E. necatrix oocysts; for Score (bloody stool score): 5 days after inoculation
Description: as §2, §3, §4
as §1, with “into 10” for “into 30”, “to 10” for “to 30”, “Table 4” for “Table 1”, “began, 100,000” for “began, 250,000”, “Eimeria necatrix” for “Eimeria tenella”, “were evaluated (according to embodiment 2).” for “were evaluated.”

[3] = system: Eimeria acervulina; test: Inhibitory effects of the derivatives on Eimeria acervulina of chicken; conditions: for responders at 60 ppm, 60 µg/mL / response vs control in vivo at 60 ppm, 60 µg/mL: Eimeria acervulina, 168 h; for responders at 60 ppm, 60 µg/mL: read-out: Survival rate (%); for response vs control in vivo at 60 ppm, 60 µg/mL: feed or water, read-out: Relative weight gain (%)
Description: as §3, §4
One-day-old yellow-feather fast-growing broilers were raised in a coccidia-free environment, and divided into groups for trial at the age of 18 days when no coccidian oocysts were detected by microscopy in their faeceas. Weak or overweight broilers were removed, and healthy broilers were divided into 10 groups with 50 broilers in each group and weight difference between each two broilers was below 20 g. Groups 1 and 2 were respectively a control group that the broilers were neither infected nor treated, and a control group that the broilers were infected but not treated. Groups 3 to 10 were respectively administrated with different derivatives. The broilers were given ad libitum access to feed and water when the feed was added with different medicines according to Table 3 at the day the broilers were divided. 24 Hours after the trial began, 400,000 sporulated Eimeria acervulina oocysts were inoculated via an oral gavage into the crop of every broiler in each group except group 1. The trial was ended 7 days after the inoculation. Relative weight gain (%), survival rate (%) and feed conversion ratio were evaluated.

[4] = broilers, 60 ppm in feed, 250,000 E. tenella oocysts, 7 days after inoculation
[5] = broilers, 60 ppm in feed, 250,000 E. tenella oocysts
[6] = broilers, 60 ppm in feed, 400,000 E. acervulina oocysts, 7 days after inoculation
[7] = broilers, 60 ppm in feed, 400,000 E. acervulina oocysts

Row | SMILES | responders at 60 ppm, 60 µg/mL [1, 4] | response vs control in vivo at 60 ppm, 60 µg/mL [1, 5] | Score (bloody stool score) [1, 5] | also measured
1 | CN1CCN(C(=O)c2nc[nH]c2C(=O)N2CCN(C)CC2)CC1 [IST15008, (1H-imidazole-4,5-diyl) bis((4-methylpiperazin-1-yl)methanone)] | 100% | 89.7% | 2 (25 to 50% of bloody stool) | responders at 60 ppm, 60 µg/mL [2]: 100%; response vs control in vivo at 60 ppm, 60 µg/mL [2]: 81.2%; Score (bloody stool score) [2]: 3 (50 to 75% of bloody stool)
2 | O=C(Nc1ccc([N+](=O)[O-])cc1)c1nc[nH]c1C(=O)Nc1ccc([N+](=O)[O-])cc1 [IST15009, N^4,N^5-bis(4-nitrophenyl)-1H-imidazole-4,5-dicarboxamide] |  | 82.6% | 3 (50 to 75% of bloody stool) | responders at 60 ppm, 60 µg/mL [1]: 100%
3 | CCCCN1C(=O)c2nc[nH]c2C1=O [IST15013, 5-butylpyrrolo[3,4-d]imidazole-4,6(1H,5H)-dione] | 100% | 88.8% | 3 (50 to 75% of bloody stool) | 
4 | O=C1NC(=O)c2[nH]cnc21 [IST15015, pyrrolo[3,4-d]imidazole-4,6(1H,5H)-dione] | 100% | 72.5% | 4 (bloody stool over 75%) | 
5 | Cc1nc(=O)c2[nH]cnc2c(=O)[nH]1 [IST15016, 6-methylimidazo[4,5-e][1,3]diazepine-4,8(1H,5H)-dione] | 100% | 74.8% | 2 (25 to 50% of bloody stool) | responders at 60 ppm, 60 µg/mL [3, 6]: 100%; response vs control in vivo at 60 ppm, 60 µg/mL [3, 7]: 75.6%; Feed conversion ratio [3, 7]: 2.524
6 | NC(=O)c1ncn(Cc2ccc(Cl)cc2)c1C(N)=O [IST15037, 1-(4-chlorobenzyl)-1H-imidazole-4,5-dicarboxamide] | 100% | 99.2% | 0 | anticoccidial activity in view of survival rate, bloody stool score and relative weight gain ([1]; 60 ppm, E. tenella): highest anticoccidial activities; anticoccidial activity in view of survival rate, bloody stool score and relative weight gain ([2]; 60 ppm, E. necatrix): highest anticoccidial activities; responders at 60 ppm, 60 µg/mL [2]: 100%; response vs control in vivo at 60 ppm, 60 µg/mL [2]: 98.9%; Score (bloody stool score) [2]: 0; anticoccidial activity in view of survival rate, relative weight gain and feed conversion ratio ([3]; 60 ppm, E. acervulina): highest anticoccidial activities; responders at 60 ppm, 60 µg/mL [3, 6]: 100%; response vs control in vivo at 60 ppm, 60 µg/mL [3, 7]: 98.5%; Feed conversion ratio [3, 7]: 2.148
7 | NC(=O)c1ncn(Cc2cccc(Cl)c2)c1C(N)=O [IST15041, 1-(3-chlorobenzyl)-1H-imidazole-4,5-dicarboxamide] | 100% | 85.4% | 3 (50 to 75% of bloody stool) | 
8 | NC(=O)c1ncn(Cc2ccc(F)cc2)c1C(N)=O [IST15042, 1-(4-fluorobenzyl)-1H-imidazole-4,5-dicarboxamide] | 100% | 81.2% | 3 (50 to 75% of bloody stool) | 
9 | NC(=O)c1ncn(Cc2c(Cl)cccc2Cl)c1C(N)=O [IST15044, 1-(2,6-dichlorobenzyl)-1H-imidazole-4,5-dicarboxamide] | 100% | 79.8% | 3 (50 to 75% of bloody stool) | 
10 | Cc1ccc(Cn2cnc(C(N)=O)c2C(N)=O)cc1 [IST15046, 1-(4-methylbenzyl)-1H-imidazole-4,5-dicarboxamide] | 100% | 78.4% | 3 (50 to 75% of bloody stool) | 
11 | COc1ccc(Cn2cnc(C(N)=O)c2C(N)=O)cc1 [IST15053, 1-(4-methoxybenzyl)-1H-imidazole-4,5-dicarboxamide] | 100% | 82.5% | 3 (50 to 75% of bloody stool) | 
12 | NC(=O)c1ncn(Cc2ccc(Cl)c(Cl)c2)c1C(N)=O [IST15054, 1-(3,4-dichlorobenzyl)-1H-imidazole-4,5-dicarboxamide] | 100% | 71.4% | 4 (bloody stool over 75%) | 
13 | NC(=O)c1ncn(Cc2cc([N+](=O)[O-])cc([N+](=O)[O-])c2)c1C(N)=O [IST15056, 1-(3,5-dinitrobenzyl)-1H-imidazole-4,5-dicarboxamide] |  | 81.3% | 3 (50 to 75% of bloody stool) | responders at 60 ppm, 60 µg/mL [1]: 100%; responders at 60 ppm, 60 µg/mL [3]: 100%; response vs control in vivo at 60 ppm, 60 µg/mL [3, 7]: 72.5%; Feed conversion ratio [3, 7]: 2.405
14 | CC(C)n1cnc(C(N)=O)c1C(N)=O [IST15115, 1-isopropyl-1H-imidazole-4,5-dicarboxamide] | 100% | 85.9% | 3 (50 to 75% of bloody stool) | 
15 | CCCCCn1cnc(C(N)=O)c1C(N)=O [IST15116, 1-pentyl-1H-imidazole-4,5-dicarboxamide] | 100% | 78.6% | 3 (50 to 75% of bloody stool) | 
16 | CS(=O)(=O)c1ccc(Cn2cnc(C(N)=O)c2C(N)=O)cc1 [IST15150, 1-(4-(methylsulfonyl)benzyl)-1H-imidazole-4,5-dicarboxamide] | 100% | 86.3% | 2 (25 to 50% of bloody stool) | 
17 | CC(=O)NC(=O)c1ncn(Cc2ccc(Cl)cc2)c1C(=O)NC(C)=O [IST15151, N^4,N^5-diacetyl-1-(4-chlorobenzyl)-1H-imidazole-4,5-dicarboxamide] | 100% | 83.6% | 3 (50 to 75% of bloody stool) | 
18 | CCC(=O)NC(=O)c1ncn(Cc2ccc(Cl)cc2)c1C(=O)NC(=O)CC [IST15152, 1-(4-chlorobenzyl)-N^4,N^5-dipropionyl-1H-imidazole-4,5-dicarboxamide] | 100% | 85.6% | 3 (50 to 75% of bloody stool) | 
19 | CCCCCCn1cnc(C(N)=O)c1C(N)=O [IST15162, 1-hexyl-1H-imidazole-4,5-dicarboxamide] | 100% | 81.6% | 3 (50 to 75% of bloody stool) | 
20 | CCn1cnc(C(=O)NC(C)=O)c1C(=O)NC(C)=O [IST15165, N^4,N^5-diacetyl-1-ethyl-1H-imidazole-4,5-dicarboxamide] | 100% | 89.7% | 2 (25 to 50% of bloody stool) | 
21 | NC(=O)c1ncn(Cc2ccc(Oc3ccc(Cl)cc3)cc2)c1C(N)=O [IST15167, 1-(4-(4-chlorophenoxy)benzyl)-1H-imidazole-4,5-dicarboxamide] | 100% | 82.7% | 3 (50 to 75% of bloody stool) | responders at 60 ppm, 60 µg/mL [2]: 100%; response vs control in vivo at 60 ppm, 60 µg/mL [2]: 75.8%; Score (bloody stool score) [2]: 3 (50 to 75% of bloody stool)
